System: T1, nicotinic acetylcholine receptors (nAChRs) on dopaminergic axons (likely beta2 subunit-containing)
T1 construct: gene Chrnb2; native receptor on dopaminergic axons; with α4 and/or α6 nAChR subunits (native heteromer, not resolved)
Test: whole-cell axonal recording of ACh-puff depolarizations; IC50 from jGCaMP8s nicotinic component in striatal slices
Set-up: species or system Mus musculus

Compound: C=C(C)[C@@H]1[C@H]2OC(=O)[C@@H]1[C@]1(O)C[C@H]3OC34C(=O)O[C@H]2[C@@]41C.CC(C)(O)[C@@H]1[C@H]2OC(=O)[C@@H]1[C@]1(O)C[C@H]3OC34C(=O)O[C@H]2[C@@]41C (stereo partly shown) [picrotoxin]
- IC50: 108 µM
